In general, IC50 refers to the midpoint of a concentration-inhibition curve. For orientation: viability, T/C means the ratio of treated to control.
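Note: luminescence signal used as surrogate measure of viable cells; spheroids exposed to compounds for seven days before readout.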
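Throughout, for viability, T/C: 100% = DMSO vehicle control viability as luminescence relative to vehicle.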

In the first assay the test system is 429239-143-T-J1-PDC complex spheroid viability. Nature of the assay: Anticancer human tumor 429239-143-T-J1-PDC patient-derived small cell lung carcinoma cell line growth inhibition [POLQ]. The following applies: curve of first compound; second compound 0.0316 µM. In a few lines: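 Growth inhibition in 3D: complex spheroids (tumor PDC, HUVEC, MSC) treated with POLQ inhibitor combinations; where Cmax unknown, highest tested concentration 10 microM, except SN-38 at 1 microM.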
Take `C=CCn1c(=O)c2cnc(Nc3ccc(N4CCN(C)CC4)cc3)nc2n1-c1cccc(C(C)(C)O)n1` + Cc1cccc(N(C)C(=O)C2C(O)CCN2c2nc(C)cc(C(F)(F)F)c2C#N)c1: the IC50 was 644 nM.

As for `CCCS(=O)(=O)Nc1ccc(F)c(C(=O)c2c[nH]c3ncc(-c4ccc(Cl)cc4)cc23)c1F` + Cc1cccc(N(C)C(=O)C2C(O)CCN2c2nc(C)cc(C(F)(F)F)c2C#N)c1, the IC50 was over 10000 nM.

`CNCc1ccc(-c2[nH]c3cc(F)cc4c3c2CCNC4=O)cc1` + Cc1cccc(N(C)C(=O)C2C(O)CCN2c2nc(C)cc(C(F)(F)F)c2C#N)c1: the IC50 is 3090 nM.

Take `O=C(c1cc(Cc2n[nH]c(=O)c3ccccc23)ccc1F)N1CCN(C(=O)C2CC2)CC1` + Cc1cccc(N(C)C(=O)C2C(O)CCN2c2nc(C)cc(C(F)(F)F)c2C#N)c1: the IC50 amounted to 1570 nM.

The assay is the same for the next values; noted with them: curve of first compound; second compound 0.1 µM.
Take `C=CCn1c(=O)c2cnc(Nc3ccc(N4CCN(C)CC4)cc3)nc2n1-c1cccc(C(C)(C)O)n1` + Cc1cccc(N(C)C(=O)C2C(O)CCN2c2nc(C)cc(C(F)(F)F)c2C#N)c1: the IC50 was 637 nM.

For `CCCS(=O)(=O)Nc1ccc(F)c(C(=O)c2c[nH]c3ncc(-c4ccc(Cl)cc4)cc23)c1F` + Cc1cccc(N(C)C(=O)C2C(O)CCN2c2nc(C)cc(C(F)(F)F)c2C#N)c1, the IC50 is over 10000 nM.

For `CNCc1ccc(-c2[nH]c3cc(F)cc4c3c2CCNC4=O)cc1` + Cc1cccc(N(C)C(=O)C2C(O)CCN2c2nc(C)cc(C(F)(F)F)c2C#N)c1, the IC50 was determined as 2600 nM.

For the molecule `O=C(c1cc(Cc2n[nH]c(=O)c3ccccc23)ccc1F)N1CCN(C(=O)C2CC2)CC1` + Cc1cccc(N(C)C(=O)C2C(O)CCN2c2nc(C)cc(C(F)(F)F)c2C#N)c1, the IC50 was determined as 1460 nM.

The assay is the same for the next values; noted with them: curve of first compound; second compound 0.316 µM.
Regarding `C=CCn1c(=O)c2cnc(Nc3ccc(N4CCN(C)CC4)cc3)nc2n1-c1cccc(C(C)(C)O)n1` + Cc1cccc(N(C)C(=O)C2C(O)CCN2c2nc(C)cc(C(F)(F)F)c2C#N)c1, the IC50 came out at 593 nM.

`CCCS(=O)(=O)Nc1ccc(F)c(C(=O)c2c[nH]c3ncc(-c4ccc(Cl)cc4)cc23)c1F` + Cc1cccc(N(C)C(=O)C2C(O)CCN2c2nc(C)cc(C(F)(F)F)c2C#N)c1: the IC50 is over 10000 nM.

Regarding `CNCc1ccc(-c2[nH]c3cc(F)cc4c3c2CCNC4=O)cc1` + Cc1cccc(N(C)C(=O)C2C(O)CCN2c2nc(C)cc(C(F)(F)F)c2C#N)c1, the IC50 is 2210 nM.

`O=C(c1cc(Cc2n[nH]c(=O)c3ccccc23)ccc1F)N1CCN(C(=O)C2CC2)CC1` + Cc1cccc(N(C)C(=O)C2C(O)CCN2c2nc(C)cc(C(F)(F)F)c2C#N)c1: the IC50 came out at 1650 nM.

Staying with this assay, now noted: curve of first compound; second compound 1 µM.
For the molecule `C=CCn1c(=O)c2cnc(Nc3ccc(N4CCN(C)CC4)cc3)nc2n1-c1cccc(C(C)(C)O)n1` + Cc1cccc(N(C)C(=O)C2C(O)CCN2c2nc(C)cc(C(F)(F)F)c2C#N)c1, the IC50 amounted to 587 nM.

`CCCS(=O)(=O)Nc1ccc(F)c(C(=O)c2c[nH]c3ncc(-c4ccc(Cl)cc4)cc23)c1F` + Cc1cccc(N(C)C(=O)C2C(O)CCN2c2nc(C)cc(C(F)(F)F)c2C#N)c1: the IC50 was over 10000 nM.

Take `CNCc1ccc(-c2[nH]c3cc(F)cc4c3c2CCNC4=O)cc1` + Cc1cccc(N(C)C(=O)C2C(O)CCN2c2nc(C)cc(C(F)(F)F)c2C#N)c1: the IC50 is 2220 nM.

With `O=C(c1cc(Cc2n[nH]c(=O)c3ccccc23)ccc1F)N1CCN(C(=O)C2CC2)CC1` + Cc1cccc(N(C)C(=O)C2C(O)CCN2c2nc(C)cc(C(F)(F)F)c2C#N)c1, the IC50 worked out at 1750 nM.

The assay is the same for the next values; noted with them: curve of first compound; second compound 3.16 µM.
In the case of `C=CCn1c(=O)c2cnc(Nc3ccc(N4CCN(C)CC4)cc3)nc2n1-c1cccc(C(C)(C)O)n1` + Cc1cccc(N(C)C(=O)C2C(O)CCN2c2nc(C)cc(C(F)(F)F)c2C#N)c1, the IC50 stood at 609 nM.

For the molecule `CCCS(=O)(=O)Nc1ccc(F)c(C(=O)c2c[nH]c3ncc(-c4ccc(Cl)cc4)cc23)c1F` + Cc1cccc(N(C)C(=O)C2C(O)CCN2c2nc(C)cc(C(F)(F)F)c2C#N)c1, the IC50 is over 10000 nM.

Regarding `CNCc1ccc(-c2[nH]c3cc(F)cc4c3c2CCNC4=O)cc1` + Cc1cccc(N(C)C(=O)C2C(O)CCN2c2nc(C)cc(C(F)(F)F)c2C#N)c1, the IC50 stood at 2450 nM.

Consider `O=C(c1cc(Cc2n[nH]c(=O)c3ccccc23)ccc1F)N1CCN(C(=O)C2CC2)CC1` + Cc1cccc(N(C)C(=O)C2C(O)CCN2c2nc(C)cc(C(F)(F)F)c2C#N)c1, for which the IC50 came to 1880 nM.

The same assay, now with this note: curve of first compound; second compound 10 µM.
As for `C=CCn1c(=O)c2cnc(Nc3ccc(N4CCN(C)CC4)cc3)nc2n1-c1cccc(C(C)(C)O)n1` + Cc1cccc(N(C)C(=O)C2C(O)CCN2c2nc(C)cc(C(F)(F)F)c2C#N)c1, the IC50 is 642 nM.

In the case of `CCCS(=O)(=O)Nc1ccc(F)c(C(=O)c2c[nH]c3ncc(-c4ccc(Cl)cc4)cc23)c1F` + Cc1cccc(N(C)C(=O)C2C(O)CCN2c2nc(C)cc(C(F)(F)F)c2C#N)c1, the IC50 was over 10000 nM.

On to `CNCc1ccc(-c2[nH]c3cc(F)cc4c3c2CCNC4=O)cc1` + Cc1cccc(N(C)C(=O)C2C(O)CCN2c2nc(C)cc(C(F)(F)F)c2C#N)c1, for which the IC50 amounted to 3240 nM.

In the case of `O=C(c1cc(Cc2n[nH]c(=O)c3ccccc23)ccc1F)N1CCN(C(=O)C2CC2)CC1` + Cc1cccc(N(C)C(=O)C2C(O)CCN2c2nc(C)cc(C(F)(F)F)c2C#N)c1, the IC50 amounted to 1500 nM.

Still in this assay, the particulars now being: second compound 0.0316 µM; first compound 0.00316 µM; stronger effect = lower value.
As to `C=CCn1c(=O)c2cnc(Nc3ccc(N4CCN(C)CC4)cc3)nc2n1-c1cccc(C(C)(C)O)n1` + Cc1cccc(N(C)C(=O)C2C(O)CCN2c2nc(C)cc(C(F)(F)F)c2C#N)c1, the viability, T/C is 106%.

The same assay, now with this note: second compound 0.0316 µM; first compound 0.01 µM; stronger effect = lower value.
In the case of `C=CCn1c(=O)c2cnc(Nc3ccc(N4CCN(C)CC4)cc3)nc2n1-c1cccc(C(C)(C)O)n1` + Cc1cccc(N(C)C(=O)C2C(O)CCN2c2nc(C)cc(C(F)(F)F)c2C#N)c1, the viability, T/C is 110%.

Staying with this assay, now noted: second compound 0.0316 µM; first compound 0.0316 µM; stronger effect = lower value.
As for `C=CCn1c(=O)c2cnc(Nc3ccc(N4CCN(C)CC4)cc3)nc2n1-c1cccc(C(C)(C)O)n1` + Cc1cccc(N(C)C(=O)C2C(O)CCN2c2nc(C)cc(C(F)(F)F)c2C#N)c1, the viability, T/C is 103%.

For `CCCS(=O)(=O)Nc1ccc(F)c(C(=O)c2c[nH]c3ncc(-c4ccc(Cl)cc4)cc23)c1F` + Cc1cccc(N(C)C(=O)C2C(O)CCN2c2nc(C)cc(C(F)(F)F)c2C#N)c1, the viability, T/C is 91.3%.

On to `CNCc1ccc(-c2[nH]c3cc(F)cc4c3c2CCNC4=O)cc1` + Cc1cccc(N(C)C(=O)C2C(O)CCN2c2nc(C)cc(C(F)(F)F)c2C#N)c1, for which the viability, T/C was 113%.

Turning to `O=C(c1cc(Cc2n[nH]c(=O)c3ccccc23)ccc1F)N1CCN(C(=O)C2CC2)CC1` + Cc1cccc(N(C)C(=O)C2C(O)CCN2c2nc(C)cc(C(F)(F)F)c2C#N)c1, the viability, T/C was 104%.

The assay is the same for the next values; noted with them: second compound 0.0316 µM; first compound 0.1 µM; stronger effect = lower value.
`C=CCn1c(=O)c2cnc(Nc3ccc(N4CCN(C)CC4)cc3)nc2n1-c1cccc(C(C)(C)O)n1` + Cc1cccc(N(C)C(=O)C2C(O)CCN2c2nc(C)cc(C(F)(F)F)c2C#N)c1: the viability, T/C was 95.1%.

Turning to `CCCS(=O)(=O)Nc1ccc(F)c(C(=O)c2c[nH]c3ncc(-c4ccc(Cl)cc4)cc23)c1F` + Cc1cccc(N(C)C(=O)C2C(O)CCN2c2nc(C)cc(C(F)(F)F)c2C#N)c1, the viability, T/C was 106%.

`CNCc1ccc(-c2[nH]c3cc(F)cc4c3c2CCNC4=O)cc1` + Cc1cccc(N(C)C(=O)C2C(O)CCN2c2nc(C)cc(C(F)(F)F)c2C#N)c1: the viability, T/C is 83.8%.

Consider `O=C(c1cc(Cc2n[nH]c(=O)c3ccccc23)ccc1F)N1CCN(C(=O)C2CC2)CC1` + Cc1cccc(N(C)C(=O)C2C(O)CCN2c2nc(C)cc(C(F)(F)F)c2C#N)c1, for which the viability, T/C is 84.5%.

The same assay, now with this note: second compound 0.0316 µM; first compound 0.316 µM; stronger effect = lower value.
`C=CCn1c(=O)c2cnc(Nc3ccc(N4CCN(C)CC4)cc3)nc2n1-c1cccc(C(C)(C)O)n1` + Cc1cccc(N(C)C(=O)C2C(O)CCN2c2nc(C)cc(C(F)(F)F)c2C#N)c1: the viability, T/C was 103%.

Take `CCCS(=O)(=O)Nc1ccc(F)c(C(=O)c2c[nH]c3ncc(-c4ccc(Cl)cc4)cc23)c1F` + Cc1cccc(N(C)C(=O)C2C(O)CCN2c2nc(C)cc(C(F)(F)F)c2C#N)c1: the viability, T/C is 88.6%.

Consider `CNCc1ccc(-c2[nH]c3cc(F)cc4c3c2CCNC4=O)cc1` + Cc1cccc(N(C)C(=O)C2C(O)CCN2c2nc(C)cc(C(F)(F)F)c2C#N)c1, for which the viability, T/C was 85.1%.

Take `O=C(c1cc(Cc2n[nH]c(=O)c3ccccc23)ccc1F)N1CCN(C(=O)C2CC2)CC1` + Cc1cccc(N(C)C(=O)C2C(O)CCN2c2nc(C)cc(C(F)(F)F)c2C#N)c1: the viability, T/C is 82.9%.

Still in this assay, the particulars now being: second compound 0.0316 µM; first compound 1 µM; stronger effect = lower value.
Take `C=CCn1c(=O)c2cnc(Nc3ccc(N4CCN(C)CC4)cc3)nc2n1-c1cccc(C(C)(C)O)n1` + Cc1cccc(N(C)C(=O)C2C(O)CCN2c2nc(C)cc(C(F)(F)F)c2C#N)c1: the viability, T/C was 17%.

For `CCCS(=O)(=O)Nc1ccc(F)c(C(=O)c2c[nH]c3ncc(-c4ccc(Cl)cc4)cc23)c1F` + Cc1cccc(N(C)C(=O)C2C(O)CCN2c2nc(C)cc(C(F)(F)F)c2C#N)c1, the viability, T/C is 93.4%.

As for `CNCc1ccc(-c2[nH]c3cc(F)cc4c3c2CCNC4=O)cc1` + Cc1cccc(N(C)C(=O)C2C(O)CCN2c2nc(C)cc(C(F)(F)F)c2C#N)c1, the viability, T/C is 75%.

As for `O=C(c1cc(Cc2n[nH]c(=O)c3ccccc23)ccc1F)N1CCN(C(=O)C2CC2)CC1` + Cc1cccc(N(C)C(=O)C2C(O)CCN2c2nc(C)cc(C(F)(F)F)c2C#N)c1, the viability, T/C was 65.4%.
